In publication PMC10455339, “Combining the Peptide RWQWRWQWR and an Ethanolic Extract of Bidens pilosa Enhances the Activity against Sensitive and Resistant Candida albicans and C. auris Strains” (Journal of Fungi, 2023):
Ends that are not written are not given here.

Tests used:
C. albicans SC5314 = test: microbe, parasite or virus in culture; type: cell-based, Candida albicans; conditions: SC5314, 48 h
Experimental: For the determination of the MICs, the guidelines of the Clinical Laboratory Standards Institute (CLSI BMD-M27-A4) were used with some modifications. Serial dilutions were made, for peptides from 6.25 to 200 µg/mL and for extracts from 31.2 to 2000 µg/mL, with RPMI 1640 medium in a 96-well microdilution plate (100 µL), and then 100 µL of the adjusted inoculum (0.5–2.5 × 10^3 cells/mL) was added and incubated at 37 °C, and visual and spectrophotometric reading (595 nm) was performed at 48 h. Controls: growth control in RPMI or DMSO, control with a known antifungal: FLC, C. albicans SC5314 (1 µg/mL), C. albicans 256 (64 µg/mL), C. auris 435 (8 µg/mL), and C. auris 537 (128 µg/mL), sterility controls correspond to RPMI medium and SS. The MIC was defined as the minimum concentration of peptide or extract that inhibited 50% of growth compared to the control. To determine the minimal fungicidal concentration (MFC), from the concentrations where no growth was observed, including the controls, a subculture was made on SDA and incubated for 24 h at 37 °C. The MFC was defined as the minimum concentration of peptide or extract that eliminated 100% of the growth compared to the control (n = 3).

[1] = tested on: primary culture of human foreskin fibroblasts; type: cell-based; conditions: 2 h
Experimental: The toxicity of the ethanolic extract of B. pilosa, the palindromic peptide, and their combinations was evaluated in a primary culture of human foreskin fibroblasts by the MTT (tetrazolium salt, Sigma-Aldrich) assay, with modifications. Briefly, cells were seeded in 96-well plates at a density of 1 × 10^4 cells and 100 μL per well and allowed to adhere and proliferate for 24 h RPMI medium at 37 °C and 5% CO2.
Following this, the complete medium was replaced with incomplete medium (without 10% fetal bovine serum) for an additional 24 h in order to achieve synchronization. The cells were then incubated at 37 °C and 5% CO2 for 2 h with 100 μL of B. pilosa extract (31.25–2000 µg/mL), peptide at the concentrations evaluated (3.12–200 μg/mL), and additive or synergistic combinations (C 1: 25/250 µg/mL, C 2: 50/62.5 µg/mL, C 3: 100/125 µg/mL, and C 4: 25/31.25 µg/mL). The culture medium was removed, and 100 μL of incomplete medium with 10% MTT was added and incubated at 37 °C and 5% CO2 for 4 h. […] Following a 30 min incubation at 37 °C, the absorbance at 575 nm was measured, using the BioTek ELx800 absorbance reader (Agilent, Santa Clara, USA). […] In addition, the half-maximal inhibitory concentration (IC50) was calculated by plotting viability versus log (concentration).

human red blood cells = test: Hemolytic activity assay; type: cell-based; conditions: positive control, Tween-20 (20% v/v) in PBS
Experimental: The hemolytic activity of the ethanolic extract of B. pilosa, palindromic peptide, and their combinations was analyzed on human red blood cells. Briefly, 5 mL of peripheral blood from a healthy individual was collected in an EDTA tube and centrifuged at 2500 rpm for 7 min. The erythrocyte-rich fraction was suspended in PBS and washed twice by centrifugation. Then, 100 µL of the B. pilosa extracts (15.62–2000 µg/mL), palindromic peptide (1.56–200 µg/mL), or additive or synergistic combinations of peptide and plant extract (combination 1: 25/250 µg/mL, combination 2: 50/62.5 µg/mL, combination 3: 100/125 µg/mL, and combination 4: 25/31.25 µg/mL) was mixed with 100 µL of erythrocytes (2% hematocrit) in round-bottom 96-well plates and incubated at 37 °C for 2 h. Subsequently, the reaction was stopped by centrifuging for 10 min at 2500 rpm. To measure hemoglobin levels, 100 µL of the supernatant containing the hemoglobin released from lysed erythrocytes was transferred to a 96-well plate with a flat bottom, and the absorbance was measured at 450 nm. PBS was used as a negative control, while Tween-20 (20% v/v) in PBS was used as a positive control (n = 3).

Substance | MIC (C. albicans SC5314) [µM] | IC50 [1] [µg/mL] | Hemolysis (in words) (human red blood cells)
RWQWRWQWR-NH2 [Peptide R-1-R] | 67 | 175.9 | 
Tween-20 |  |  | completely lysed the red blood cells
